Reference: patent US6541463B1, “Inhibitors of type 5 and type 3 17β-hydroxysteroid dehydrogenase and methods for their use” (Endorecherche, Inc., priority 1998, dated 2003)

Assays:
[1] = target: T1, human type 5 17β-hydroxysteroid dehydrogenase (Homo sapiens, UniProt P42330); assay: Inhibition of human type 5 17β-HSD activity in transfected 293 cells; assay type: cell-based; set-up: Inhibition Type V 17B-HSD % Inh. At 3 · 10^−7 (second value in parentheses): concentration or dose not given beside the values
T1 construct: screen again a human placental λgt11 cDNA to get the full length cDNA clone; expressed in transfected cells; host or cells: human embryonal kidney 293 cells (pCMV / pCMV-neo vector)
T1 sequence (P42330 1-323): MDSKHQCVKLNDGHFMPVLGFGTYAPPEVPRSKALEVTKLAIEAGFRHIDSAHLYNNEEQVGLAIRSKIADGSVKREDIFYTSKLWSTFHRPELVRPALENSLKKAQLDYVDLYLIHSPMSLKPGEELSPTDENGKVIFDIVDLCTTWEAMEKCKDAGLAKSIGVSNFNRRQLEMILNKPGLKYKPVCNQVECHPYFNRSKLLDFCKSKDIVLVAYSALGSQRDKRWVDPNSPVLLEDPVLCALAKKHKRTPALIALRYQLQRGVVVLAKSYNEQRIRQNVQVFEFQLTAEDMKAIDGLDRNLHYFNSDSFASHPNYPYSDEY
Protocol: The manner in which IC50 was determined is described in “Efficacy of the Preferred Inhibitors”. Lower numbers for IC50 are desirable.
Using a oligoprimer pair (5′-GGA-AAT-CGT-GAC-AGG-GAA-TGG-ATT-CCA-AAC-AG-3′, 5′-GGA-ATT-CTT-TAT-TGT-ATT-TCT-GGC-CTA-TGG-AGT-GAG-3′) derived from human aldoketoreductase (Qin et al., J. Steroid Biochem. Molec. Biol. 46: 673-679, 1993) and polymerase chain reaction (PCR), we have amplified from a human placental λgt11 cDNA library (Clontech Laboratories Inc., Palo Alto, Calif.) a cDNA fragment that was used as probe to screen again a human placental λgt11 cDNA to get the full length cDNA clone. The amplified cDNA fragment was purified on agarose gel and labeled with [α^32P]dCTP (Amersham Corp.) using the random primer labeling kit from Pharmacia Inc. PCR amplification reaction medium contained 50 mM KCl, 10 mM Tris-HCl, pH 8.3, 0.1% gelatin, 1 mM MgCl2, 250 μM dNTP, 0.25 μM oligonucleotide primers, and 200 ng of DNA prepared from human placental λgt11 cDNA library. The aqueous phase was overlaid with 75 μL of mineral oil to avoid evaporation. The mixture was heated at 98° C. for 5 min, following the temperature reduction to 72° C., 1 unit of Taq DNA polymerase was added. Using a DNA Thermal Cycler (Perkin-Elmer Corp.), 30 cycles of amplification were carried out using a step program (94° C., 1 min; 60° C., 1 min; and 72° C., 1 min)/cycle.
Approximately 5×10^5 recombinant phage plaques were screened with 1.5×10^6 cpm/ml of the probe. Prehybridization was performed for 4 h at 42° C. in 50% formamide, 5× Denhardt's solution (1× Denhardt's being 0.02% polyvinyl pyrrolidone, 0.02 Ficoll, 0.02 bovine serum albumin), 5×SSPE (1×SSPE being 0.18M NaCl, 10 mM NaH2PO4, pH 7.4, 1 mM EDTA), 0.1% SDS, and 100 μg/ml yeast tRNA. The probe was denatured by heating at 100° C. for 5 min, before being added to the hybridization solution at 42° C. overnight. Filters were then washed twice at room temperature in 2×SSC (1×SSC being […], pH 7.0), 0.1% SDS, and twice in 0.1×SSC, 0.1% SDS at 60° C. Positive recombinant plaques were purified by replating twice and grown in liquid culture. Phage DNA were isolated by centrifugation for 90 min at 105,000×g, and DNA was then isolated by phenol extraction and precipitation with isopropanol (Karen et al. 1987; In: Current Protocols in Molecular Biology (F. M. Ausubel, R. Brent, E. Kingston, D. D. Moore, T. G. Seidman, T. A. Smith and K. Struhl, eds), Wiley & Sons, New York, pp. 1.13.1-1.13.6).
The phage DNA were digested with EcoRI restriction enzymes and the resulting cDNA fragments were inserted into the EcoRI site downstream to the cytomegalovirus (CMV) promoter of the pCMV vector (kindly provided by Dr. Matthew, Cold Spring Harbor, N.Y., USA). Recombinant pCMV plasmids were amplified in Escherichia Coli DH5α competent cells, and were isolated by alkaline lysis procedure (Maniatis et al., In: Molecular cloning: a laboratory manual, Cold Spring Harbor Laboratory., 1982). Sequencing of double-stranded plasmid DNA was performed according to the dideoxy chain termination method (Sanger et al., PNAS 74: 5453-5467, 1977) using a T7 DNA polymerase sequencing kit (Pharmacia LKB Biotechnology). To avoid errors, all sequences were determined by sequencing both strands of the DNA. Oligonucleotide primers were synthesized in our laboratory with a 394 DNA/RNA synthesizer (Applied Biosystem).
The pCMV vector contain 576 nucleotides of the pCMV promoter (followed by 432 bp of small t intron (fragment 4713-4570) and poly adenylation signal (2825-2536)of SV40, followed by 1989 bp of the Pvu II(628)-AatII (2617) fragment from pUC 19 vector (New England Biolabs) that contains an E. Coli origin of replication and an ampicillin resistance gene for propagation in E. Coli. […]

[2] = tested on: Shionogi mouse mammary carcinoma cells; assay: Androgenic activity: stimulation of proliferation of Shionogi cells; assay type: cell-based
Protocol: In column 9, the androgenic activity of preferred type 5 inhibitors expressed as the percentage of stimulation of proliferation of Shionogi cells at concentrations of 10^−7 M (left number) and 10^−6 M (right number) of inhibitor. The manner in which the stimulation is determined is described in “Other Tests; B-Androgenic/Antiandrogenic Activity”. Lower numbers are desirable. ND means that a determination was not done.
Androgenic/antiandrogenic activity of some preferred compounds has been measured using the Shionogi mouse mammary carcinoma cells.
Minimal essential culture medium (MEM), non-essential amino acids, and fetal calf serum were purchased from Flow Laboratories. In order to remove endogenous steroids, serum was incubated overnight at 4° C. with 1% activated charcoal (Norit A, Fisher) and 0.1% Dextran T-70 (Pharmacia). A 2-h supplementary adsorption was performed at 25° C. in order to further remove protein-bound steroids. Serum was also inactivated by a 20-min incubation at 56° C.
5α-dihydrotestosterone (DHT) was obtained from Steraloids. The antiandrogen hydroxyflutamide (OH-FLU) was kindly supplied by Drs. T. L. Nagabuschan and R. Neri (Schering Corporation, Kenilworth, U.S.A.).
Shionogi male mice bearing androgen-sensitive mammary tumors were obtained from Drs. Keishi Matsumoto, Osaka, Japan, and Yvonne Lefebvre, Ottawa, Canada. For primary culture, tumors were excised and washed in ice-cold sterile 25 mM Hepes buffer (137 mM NaCl; 5 mM KCl; 0.7 mM Na2HPO4; 10 mM glucose, pH 7.2). After mincing with scissors, the tumor minces were digested for 2 h at 37° C. in Hepes buffer containing 3.8 mg/ml collagenase (Clostridium, Boehringer), 1.5 mg/ml hyaluronidase II (Sigma), and 3% bovine serum albumin fraction V (Schwartz-Mann). Dispersed cells were collected by centrifugation (500×g for 10 min), washed twice by suspension in minimal essential medium (MEM) containing 5% dextran-coated charcoal-treated fetal calf serum (DCC-FCS), 1% non-essential amino acids, 10 IU/ml penicillin, 50 μg/ml streptomycin, and 100 nM dihydrotestosterone (DHT) (Steraloids).
Cells were plated in the same medium at a density of 75 000 cells/ml in 75 cm^2 flasks under an atmosphere of 5% carbon dioxide in air at 37° C. The medium was changed weekly. The steroids and antisteroids were dissolved in ethanol and kept in stock solutions chosen to yield final ethanol concentrations less than 0.01% in the culture medium.
Cells were subcultured at near-confidence by gentle digestion in a solution of 0.1% pancreatin (Flow Laboratories) in Hepes buffer containing 3 mM ethylenediaminetetraacetic acid (EDTA) (pH 7.2). Cells were pelleted by centrifugation, resuspended in culture medium, counted in a Coulter counter, and replated as described above. Soft agar cloning was performed as described (Stanley et al., Cell 10: 35-44, 1977) in the presence of 100 nM DHT.
Cells were plated in 24-well plates at a density of 20 000 cells/well. The indicated increasing concentrations of agents were added to triplicate dishes, and cells were grown for 10-12 days with changes of medium every 3-4 days. Cell number was measured by direct counting in a Coulter counter.
ED50 values of action of DHT and glucocorticoids were calculated according to a least-square regression as described (Rodbard, Endocrinology 94: 1427-1431, 1974). Statistical significance was calculated according to a multiple-range test (Kramer, Biometrics 12: 307-310,1956).

## CC(=O)O[C@]1(C(C)=O)CC[C@H]2[C@@H]3C=C(Cl)C4=CC(=O)CC[C@]4(C)[C@H]3CC[C@@]21C [chlormadinone acetate, reference compound]
[1]
  inhibition of type 5 17β-hydroxysteroid dehydrogenase (in words): inhibit that type 5 enzyme

## CC(=O)O[C@]1(C(C)=O)CC[C@H]2[C@@H]3C[C@H](C)C4=CC(=O)CC[C@]4(C)[C@H]3CC[C@@]21C [Medroxyprogesterone acetate, reference compound]
[1]
  inhibition of type 5 17β-hydroxysteroid dehydrogenase (in words): inhibit that type 5 enzyme

## CCCCCO[C@]1(C(C)=O)CC[C@H]2[C@@H]3C=C(C)C4=CC(=O)CC[C@]4(C)[C@H]3CC[C@@]21C [EM-1127, 6-Methyl-17α-pentyloxy-4,6-pregnadien-3,20-dione]
[1]; at 3.10^−6
  Inhibition Type V 17β-HSD % Inh.: 91) %
[1]; at 3.10^−7
  Inhibition Type V 17β-HSD % Inh.: (71%
[2]; E^−6
  Androgenic Activity Shionogi, Basal: 92
[2]; E^−7
  Androgenic Activity Shionogi, Basal: 85

## CC12CCC(=O)C=C1C=CC1C2CCC2(C)C(=O)C3CCCC3C12 (centres unmarked) [SA-208-59]
[1]; first of two concentrations, 3 · 10^−7
  Inhibition Type V 17B-HSD % Inh. At 3 · 10^−7 (first value in parentheses): (72%
[1]; second of two concentrations, 3 · 10^−7
  Inhibition Type V 17B-HSD % Inh. At 3 · 10^−7 (second value in parentheses): 88) %
